Patent US20040086896A1, “Polynucleotides and polypeptides associated with the NF-kB pathway” (priority 2001, published 2004)

What was measured:
NF-κB pathway = assay: AD037 mRNA by quantitative PCR in THP-1 monocytes, LPS with dexamethasone or IKK-2 inhibitor (FIG. 80); type: cell-based, human; details: LPS, 2, 4 and 8 hours post stimulation
Experimental: The figure illustrates the basal AD037 expression in THP-1 monocytes in response to LPS (“LPS”), LPS and the glucocorticoid dexamethasone (“LP/Dex”), or LPS and the IKK-2 inhibitor BMS-345541 (“LPS/345541”), for 2 hours, 4 hours, and 8 afters post stimulation. Unstimulated THP-1 moncytes served as a control. […] Expression data was obtained by measuring the steady state AD037 mRNA levels by quantitative PCR using the PCR primer pair provided as SEQ ID NO:162 and 163 as described herein.
Moreover, in an effort to further confirm the NF-κB-dependent expression of AD037, two approaches were investigated. In the first approach, additional inhibitors of the NF-κB pathway were used to assess their affect on AD037 expression. Although it has other transcriptional effects, dexamethasone inhibits NF-κB activity via glucocorticoid receptor-mediated transrepression (Reichardt et al. (2001) EMBO J. 20:7168-7173). The compound 4(2′-aminoethyl)amino-1,8-dimethylimidazo(1,2-a) quinoxaline, is a selective IKK-2 inhibitor (International Publication No. WO 02/60386, Published Oct. 10, 2002; Burke et al. (2003) J. Biol. Chem. 278:1450-1456).

AD037 mRNA [1] = assay: AD037 mRNA by RT-PCR in stimulated THP-1 human monocyte line; type: cell-based; details: THP-1 cells stimulated for 8, 24, or 48 hours; 100 ng/ml LPS, 10 ng/ml TNFα or 100 units/ml IFN-γ; FIG. 18
Experimental: Nonetheless, the following methods were used to assess the expression profile of the NFkB assocaited polypeptides of the present invention. Briefly, poly (A)^+ mRNA was isolated from THP-1 cells that were either unstimulated, or stimulated with 100 ng/ml LPS for two hours in the presence and absence of BMS-205820 (2 uM) using the Fast Track isolation kit (Invitrogen, Carlsbad, Calif.) according to the manufacturer's instructions. RNA quality and quantity were evaluated using UV spectrometry and capillary electrophoresis with the RNA 6000 Assay (Agilent). […]
PCR reactions were performed in a total volume of 40 ul containing master mix (SYBR Green I dye, 50 mM Tris-Cl pH 8.3, 75 mM KCl, DMSO, Rox reference dye, 5 mM MgCl2, 2 mM dNTP, I unit Platinum Taq High Fidelity enzyme), 0.5 uM each of forward and reverse gene-specific primers, and cDNA (8 ul of a 1:36 dilution of the first strand reaction mix). […] The data were analyzed using the TaqMan 5700 software with the threshold value set to 0.5. […]
The THP-1 human monocyte line was stimulated with 100 ng/ml LPS, 10 ng/ml TNFα (Peprotech, Rocky Hill, N.J.), or 100 units/ml interferon-γ (IFN-γ, Peprotech) for either 8, 24, or 48 hours. […] The levels of each NFkB associated polypeptide mRNA may be measured by RT-PCR analysis using the primers described herein for each gene. […]

AD037 mRNA [2] = assay: AD037 mRNA by RT-PCR in stimulated synovial fibroblasts; type: cell-based; details: synovial fibroblasts, 1, 6, or 24 hours; TNFα, IL-1α, IL-17 10 ng/ml, IL-17B-Ig fusion protein 5 ng/ml; FIG. 20
Experimental: Nonetheless, the following methods were used to assess the expression profile of the NFkB assocaited polypeptides of the present invention. Briefly, poly (A)^+ mRNA was isolated from THP-1 cells that were either unstimulated, or stimulated with 100 ng/ml LPS for two hours in the presence and absence of BMS-205820 (2 uM) using the Fast Track isolation kit (Invitrogen, Carlsbad, Calif.) according to the manufacturer's instructions. RNA quality and quantity were evaluated using UV spectrometry and capillary electrophoresis with the RNA 6000 Assay (Agilent). Five-hundred nanograms of polyA RNA was used for first-strand cDNA synthesis using the SuperScriptTm First-Strand Synthesis System for RT-PCR (Invitrogen) according to the manufacturer's instructions with 250 ng of random hexamers.
PCR reactions were performed in a total volume of 40 ul containing master mix (SYBR Green I dye, 50 mM Tris-Cl pH 8.3, 75 mM KCl, DMSO, Rox reference dye, 5 mM MgCl2, 2 mM dNTP, I unit Platinum Taq High Fidelity enzyme), 0.5 uM each of forward and reverse gene-specific primers, and cDNA (8 ul of a 1:36 dilution of the first strand reaction mix). For tissue expression analyses, PCR reactions included 2 ul of cDNA derived from the Human Multiple Tissue cDNA panel I and Human Immune System MTC Panel (Clontech, Palo Alto, Calif.). The amplification program consisted of a 10 minute incubation at 95° C., followed by 40 cycles of incubations at 95° C. for 15 seconds, 60° C. for 1 minute. The amplification was followed by melting curve analysis at 60° C. to determine the specificity of the amplification reaction. A negative control without cDNA template was run to assess the overall specificity. The data were analyzed using the TaqMan 5700 software with the threshold value set to 0.5. The message levels of GAPDH were used to normalize the amounts of cDNA for each reaction.
Synovial fibroblasts were obtained from Cell Applications, INC. […] The levels of each NFkB associated polypeptide mRNA may be measured by RT-PCR analysis using the primers described herein for each gene. […]

Cc1ccc2nc(NCCN)c3ncc(C)n3c2c1 [BMS-345541, 4(2′-aminoethyl)amino-1,8-dimethylimidazo(1,2-a) quinoxaline]
LPS-induced AD037 expression (mRNA) (NF-κB pathway): reduced to control levels | LPS-induced AD037 expression (mRNA) (NF-κB pathway; listed as 4(2′-aminoethyl)amino-1,8-dimethylimidazo(1,2-a) quinoxaline): significantly inhibited

TNFα
AD037 mRNA level (RT-PCR, normalized to GAPDH) (AD037 mRNA [1]): upregulated | AD037 mRNA level (RT-PCR, normalized to GAPDH) (AD037 mRNA [2]): No upregulation

IFN-γ: interferon-γ (Peprotech), fails to activate the NF-KB pathway
AD037 mRNA level (RT-PCR, normalized to GAPDH) (AD037 mRNA [1]): Little upregulation

IL-17: IL-17 (R&D Systems) cytokine stimulus
AD037 mRNA level (RT-PCR, normalized to GAPDH) (AD037 mRNA [2]): No upregulation

B1: IL-1α: IL-1α (Peprotech) cytokine stimulus (protein, UniProt P01583 113-271, looked up)
Interleukin-1 alpha: SAPFSFLSNVKYNFMRIIKYEFILNDALNQSIIRANDQYLTAAALHNLDEAVKFDMGAYKSSKDDAKITVILRISKTQLYVTAQDEDQPVLLKEMPEIPKTITGSETNLLFFWETHGTKNYFTSVAHPNLFIATKQDYWVCLAGGPPSITDFQILENQA
AD037 mRNA level (RT-PCR, normalized to GAPDH) (AD037 mRNA [2]): No upregulation
